Measurements taken from US11369695B2, “Fat droplets in retina and optic nerve as a diagnostic marker for neurodegeneration and glaucoma in humans” (The Jackson Laboratory, priority 2016, dated 2022).
Entries after “also recorded” stand apart in the source; their conditions may differ.

What was measured:
DBA/2J (D2) mice [1] = details: cited from earlier work
DBA/2J (D2) mice [2] = details: cited from earlier work; remark: listed apart in the source
DBA/2J (D2) mice [3] = experiment: Intraocular pressure (IOP) in D2 mice; type: in vivo, mouse; details: NAM in drinking water (data not shown)
From the text: Following the onset of iris disease around 6 months of age, intraocular pressure began to increase (FIG. 2). A typical “normal” IOP in a D2 mouse eye is ˜13 mmHg, which increases progressively from 6 to 12 months, to values that can typically exceed 20 mmHg. By 9 months of age, IOP was/had been elevated in the majority of the eyes of the D2 mice. IOP increases in D2 eyes were age-related and asynchronous, as well as being highly variable. In our colony, females tend to have higher/early onsets of elevated IOP (FIG. 2). […] Importantly, NAM was protective both prophylactically (starting at 6-month, early start; prior to IOP elevation in the vast majority of eyes in the colony), and as an intervention (starting at 9-month, late start; when the majority of eyes have had continuing IOP elevation). This signifies that NAM is able to both prevent neuronal injury from occurring as well as limiting neuronal injury to already insulted neurons (FIG. 6). This is important for human disease where treatment would only start once a disease has become symptomatic and thus detectable.

DBA/2J (D2) mice [4] = experiment: Glaucomatous neurodegeneration in D2 mice at 12 months (optic nerve damage grading, soma loss, visual function, axonal transport); type: in vivo, mouse; details: for protection from developing glaucoma / optic nerve degeneration: NAM 550 mg/kg/d in drinking water, assessed at 12 months
Description: From left, DBA/2J control—D2 mice on standard drinking water; Nicotinamide)(NAM^Lo) early start—D2 mice on standard drinking water supplemented with 550 mg/kg/day NAM from 6 months of age (pre-disease); Nicotinamide)(NAM^Lo) late start—D2 mice on standard drinking water supplemented with 550 mg/kg/day NAM from 9 months of age (during disease); Nicotinamide (NAM^Hi) early start—D2 mice on standard drinking water supplemented with 2,000 mg/kg/day NAM from 6 months of age (pre-disease); Pyruvate—D2 mice on standard drinking water supplemented with 500 mg/kg/day pyruvate from 6 months of age (pre-elevated IOP); NAM^Lo+Pyruvate—D2 mice on standard drinking water supplemented with 550 mg/kg/day NAM+500 mg/kg/day pyruvate from 6 months of age (pre-disease); D2.Wld^S—D2 mice carrying the Wld^S transgene (altered NMNAT enzyme that enhances enzymatic activity) on standard drinking water; D2.Wld^S+Nicotinamide)(NAM^Lo)—D2 mice carrying the Wld^S transgene (altered NMNAT enzyme) on standard drinking water with 550 mg/kg/day NAM from 6 months of age (pre-elevated IOP).
To determine the fate of the retinal ganglion cells following prolonged period of elevated IOP in the D2 mice, we used PPD staining of the optic nerve to reveal the extent of retinal and/or optic nerve neurodegeneration, as PPD darkly stains the axoplasm of dead/dying axons.
For this purpose, we distinguished optic nerves as having one of three levels of damage: no glaucoma, where there is <5% axon loss in the optic nerve, these nerves are indistinguishable from young controls; moderate glaucoma, with […], and evidence of darkly stained axons; or severe glaucoma, with >50% axon loss, and typically accompanied by gliosis/gliotic scarring.
We conducted this in vivo experiment using a large cohort of D2 mice. In this experiment, optic nerves were classified into three damage levels: NO (no glaucoma), MOD (moderate damage), and SEV (severe damage).
Experimental D2 mice were divided into the following groups and were given:
W=water (standard mouse water)
NAM or NAM^Lo=550 mg/kg/d NAM in drinking water
Early=early start=pre-glaucoma=6-month of age (i.e. prophylactic)
Late=late start=during glaucoma=9-month of age (when mice already have high IOP, i.e. interventional, and more relative to human glaucoma)
Mice were then assessed at 12-month for optic nerve damage, soma loss, visual function, and axonal transport (data not shown).

retinal ganglion cells = experiment: Retinal ganglion cell analyses in NAM-treated D2 mice (data not shown); type: in vivo, mouse
From the text: In addition, many ocular and neurodegenerative diseases occur in the elderly due to age-dependent molecular chances that increase susceptibility to damage. […] Furthermore, axonal degeneration and somal shrinkage may represent common components in some neurodegenerative diseases. NAM prevents these changes based on the data above at least in glaucoma treatment.

[5] = tested on: lipid droplets in DBA/2J retinas; experiment: Lipid droplet formation in the inner retina by Oil Red O staining; type: in vivo, mouse; details: 12 month of age DBA/2J mice, versus untreated
Description: Lipid droplet formation in the inner retina was assessed by Oil Red O staining, which brightly stained neutral triglycerides and lipids. Following intraocular pressure elevation, lipid droplets were present within the inner retina of DBA/2J mice. At 6 months of age, the majority of retinas were negative for lipid droplets. By 9 months of age, small and dispersed lipid droplets were present in some eyes. By 12 months of age, lipid accumulation was present in the majority of eyes in retinas that had not yet developed glaucoma (no glaucoma). In eyes that had developed severe glaucoma, lipid droplets were present across the retina in the majority of eyes. GCL=ganglion cell layer (retinal ganglion cell bodies), IPL=inner plexiform layer (retinal ganglion cell dendrites and synapses). Haematoxylin (dark blue/purple) is a general marker of cell nuclei used as a counter-stain.
Lipid droplet formation was assessed in retinas from nicotinamide-treated DBA/2J mice. […] GCL=ganglion cell layer (retinal ganglion cell bodies), IPL=inner plexiform layer (retinal ganglion cell dendrites and synapses). Haematoxylin (dark blue/purple) is a general marker of cell nuclei used as a counter-stain.
Again, lipid/fat droplet formation in the inner retina was assessed by Oil Red O staining. […]
Lipid droplet formation was assessed in retinas from nicotinamide-treated DBA/2J mice.

NAD levels = NAD levels in NAM-treated D2 mice; type: in vivo, mouse; details: NAM 550 mg/kg/d in drinking water
mice = experiment: PQQ tolerability in mice; type: in vivo, mouse
Description: With regard to PQQ, it is tolerated at least at 2,000 mg/kg/day in mice. The neuroprotective effect provided by PQQ is about 20-2,000 mg/kg/day, about 100-1,000 mg/kg/day, or about 500 mg/kg/day in mice.

In the case of `CC12CC3CC(C)(C1)CC(N)(C3)C2` [memantine], the “IOP after topical administration” value (DBA/2J (D2) mice [1]) is listed as “lowers IOP” and the “risk of developing neurodegeneration after topical administration” value (“risk of developing neurodegeneration” for short) (DBA/2J (D2) mice [2]) is listed as “reduces the risk of developing neurodegeneration”.

With `NC(=O)c1cccnc1` [NAM, nicotinamide] the “effect on IOP” value (DBA/2J (D2) mice [3]) was “did not alter IOP”, the “protection from developing glaucoma / optic nerve degeneration” value (DBA/2J (D2) mice [4]) was “protect the D2 mice from all detectable signs of glaucoma through 12 months; also recorded: robustly protected D2 mice from developing glaucoma” and the “protection from developing glaucoma / optic nerve degeneration” value (DBA/2J (D2) mice [4]; listed as nicotinamide) was “protects against optic nerve degeneration”. For the same compound, the “glaucoma in the majority of the treated eyes, including PERG” value (DBA/2J (D2) mice [4]; NAM administration) was “completely prevents glaucoma”, the “protection from glaucoma, prophylactic” value (DBA/2J (D2) mice [4]; NAM early start at 6-month, prior to IOP elevation) was “protects against glaucomatous neurodegeneration prophylactically; also recorded: protective” and the “protection from glaucoma, as an intervention” value (DBA/2J (D2) mice [4]; NAM late start at 9-month, continuing IOP elevation) was “protective”. The early synapse loss (retinal ganglion cells; data not shown) was “protects early synapse loss”, the “formation of dysfunctional mitochondria with abnormal cristae” value (retinal ganglion cells; data not shown) was “inhibits the formation of dysfunctional mitochondria with abnormal cristae” and the “retinal ganglion cell dysfunction and degeneration” value (retinal ganglion cells; data not shown) was “robustly prevent retinal ganglion cell dysfunction and degeneration”. For the same compound, the “age-related gene expression / molecular changes in RGCs” value (retinal ganglion cells; gene expression, data not shown) was “prevents age-related gene expression In RGCs; also recorded: prevents age-related molecular changes”, the “axonal degeneration and somal shrinkage” value (retinal ganglion cells; glaucoma) was “prevents axonal degeneration and somal shrinkage” and the PARP activation (retinal ganglion cells; immunostaining, data not shown) was “decreases PARP activation”. For the same compound, the “molecular signs of glaucoma” value (retinal ganglion cells; immunostaining, data not shown) was “prevents molecular signs of glaucoma”, the “lipid droplet accumulation in retinas” value [5] was “completely prevented” and the “decline of NAD levels” value (NAD levels) was “prevent the decline of NAD levels”.

In the case of `CC(C)(C)NC[C@H](O)COc1nsnc1N1CCOCC1` [timolol], the “IOP after topical administration” value (DBA/2J (D2) mice [1]) is given as “lowers IOP” and the “risk of developing neurodegeneration” value (DBA/2J (D2) mice [2]) is given as “reduces the risk of developing neurodegeneration”.

With `O=C(O)c1cc(C(=O)O)c2c(n1)C(=O)C(=O)c1cc(C(=O)O)[nH]c1-2` [PQQ, Pyrroloquinoline Quinone] the tolerated dose (mice) was ≥ 2,000 mg/kg/day.

In the case of `CC(C)OC(=O)CCC/C=C\C[C@@H]1[C@@H](CC[C@@H](O)CCc2ccccc2)[C@H](O)C[C@@H]1O` [Latanoprost], the “IOP after topical administration” value (DBA/2J (D2) mice [1]) is listed as “lowers IOP” and the “risk of developing neurodegeneration” value (DBA/2J (D2) mice [2]) is listed as “reduces the risk of developing neurodegeneration”.
